Measured values as given in publication PMC7583350 (Journal of medicinal chemistry, 2018).
Entries after “also recorded” stand apart in the source; their conditions may differ.

Legend:
PANC-1 cells = test: Co-treatment with gemcitabine, PANC-1 pancreatic cancer cells; type: cell-based, human; settings: GEM-resistant, 15 μM IAP inhibitor, 24 hrs co-treatment
MIA PaCa-2 cells = test: Co-treatment with gemcitabine, MIA PaCa-2 pancreatic cancer cells; type: cell-based, human; settings: GEM-sensitive, 15 μM IAP inhibitor, 24 hrs co-treatment
BxPC3 cells = test: Co-treatment with gemcitabine, BxPC3 pancreatic cancer cells; type: cell-based, human; settings: 15 μM IAP inhibitor, 24 hrs co-treatment
H929 cells = test: MTS assay, multiple myeloma cell line H929; type: cell-based, human; settings: LCL161-sensitive MM cell line, 48 hr, 20 μM
MOLT-4 cells [1] = test: Cell viability of MOLT-4 cells; type: cell-based, human; settings: MOLT-4, 48 hrs
L363 cells = test: MTS assay, multiple myeloma cell line L363; type: cell-based, human; settings: LCL161-sensitive MM cell line, 48 hr, 20 μM
BIR2 domain of XIAP = BIR2 domain of XIAP (Homo sapiens, UniProt P98170); test: DELFIA assay, BIR2 domain of XIAP; type: binding; settings: supplementary Table S1
MOLT-4 cells [2] = settings: cited from earlier work

Chain of BIR2 domain of XIAP (P98170 152-236 limits assumed): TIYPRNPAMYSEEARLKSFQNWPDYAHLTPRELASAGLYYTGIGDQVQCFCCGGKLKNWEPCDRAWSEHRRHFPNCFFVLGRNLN

Affinity for the BIR2 domain of XIAP (BIR2 domain of XIAP)	SMILES	Effect in combination with gemcitabine, PANC-1 (PANC-1 cells)	Effect in combination with gemcitabine, MIA PaCa-2 (MIA PaCa-2 cells)	Effect in combination with gemcitabine, BxPC3 (BxPC3 cells)	Growth inhibition H929 (H929 cells)	Activity in cell viability assay (MOLT-4 cells [1])	Growth inhibition L363 (L363 cells)	Sensitivity of MOLT-4 cell line (MOLT-4 cells [2])
	CN[C@@H](C)C(=O)N[C@@H](Cc1cc(C)c(C(F)(F)F)cc1F)C(=O)N1CCC[C@H]1C(=O)N[C@@H]1CCc2c(F)cccc21 [Compound 31]	significantly restore growth inhibition by gemcitabine; also recorded: significant synergism	modest significant additive effect	significantly restore growth inhibition by gemcitabine; also recorded: significant synergism				
only modest affinity	CN[C@@H](C)C(=O)N[C@H](C(=O)N1CCC[C@H]1c1nc(C(=O)c2ccc(F)cc2)cs1)C1CCCCC1 [LCL161]	significantly restore growth inhibition by gemcitabine		significantly restore growth inhibition by gemcitabine	particularly active	not particularly active; also recorded: less potent than both compound 34 and compound 31	particularly active	insensitive
